The text below walks through data of US8524809B2, “Low odor compositions and methods to attain low odor compositions” (Rohm and Haas Company, priority 2010, dated 2013).

For one assay, the target named is T1, CALBL (Moesziomyces antarcticus, UniProt P41365).
T1 construct: purchased Novozymes, Bagsvaerd, Denmark Novozym CALB L
T1 sequence (P41365 26-342): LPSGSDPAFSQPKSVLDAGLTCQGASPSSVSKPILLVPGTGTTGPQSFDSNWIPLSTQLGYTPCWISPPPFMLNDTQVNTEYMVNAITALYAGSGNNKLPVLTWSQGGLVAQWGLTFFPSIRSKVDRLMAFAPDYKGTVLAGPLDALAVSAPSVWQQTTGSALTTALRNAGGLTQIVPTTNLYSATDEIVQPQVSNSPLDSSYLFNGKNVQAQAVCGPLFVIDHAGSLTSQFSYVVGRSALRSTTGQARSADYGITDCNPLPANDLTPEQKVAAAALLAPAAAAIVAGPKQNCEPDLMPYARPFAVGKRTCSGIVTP
Briefly: Small molecule inhibitors: EA content of latex containing CALBL. It counts as biochemical. The settings on record: for Inhibition of CALBL (in words): inhibitor 1.0%. The protocol:
(§1) In another embodiment, deactivation of the carboxylesterase enzyme may be achieved by the addition of a small molecule inhibitor, as shown for CALBL and N51032 in Tables 13 and 14, below. […] The small molecule inhibitor and CALBL were added simultaneously at the time t=0. In the following tables, the potential small molecule inhibitors are as follows: […]

In the next assay the test system is N51032. Briefly: Small molecule inhibitors: EA content of latex containing N51032. It counts as biochemical. The protocol:
as §1

Assay [1] is described as follows: Nucleophilic reagents: aldehyde content in vinyl acetate-acrylic latex. The note with it: Rovace 9900 pre-treated 1 week with 50 ppm N51032; reagent 50 ppm, 55° C. 2 hours, then 1 week RT.
Description: The latex samples were first treated with a carboxylesterase enzyme (50 ppm of N51032) for 1 week to remove residual esters and also to convert residual vinyl acetate to acetaldehyde (the esterase produces vinyl alcohol, which rearranges to form acetaldehyde). Each sample was then stirred at 55° C. for 2 hours with the reagent shown below in Table 26 (added at a level of 50 ppm), and then left at room temperature for 1 week before evaluating levels of aldehyde in the headspace composition (GC-MS, 33° C.).
[2] abbreviates: AC-261 latex, CALBL 60 ppm, inhibitor 1.0% added simultaneously (Control: none), 0 hr.
[3] abbreviates: AC-261 latex, CALBL 60 ppm, inhibitor 1.0% added simultaneously (Control: none), 24 hr.
Setting [4] is: AC-261 latex, CALBL 60 ppm, inhibitor 1.0% added simultaneously (Control: none), 72 hr.
Setting [5] is: AC-261 latex, CALBL 60 ppm, inhibitor 1.0% added simultaneously (Control: none), 168 hr.
[6] abbreviates: CALBL 6 ppm, inhibitor 0.001%, 0 hr.
Setting [7] is: CALBL 6 ppm, inhibitor 0.001%, 120 hr.
[8] abbreviates: CALBL 6 ppm, inhibitor 0.001%, 168 hr.
Where [9] appears, read: CALBL 6 ppm, inhibitor 0.001%, 384 hr.
Setting [10] is: CALBL 6 ppm, inhibitor 0.001%, 480 hr.
[11] abbreviates: CALBL 6 ppm, inhibitor 0.01%, 0 hr.
Setting [12] is: CALBL 6 ppm, inhibitor 0.01%, 120 hr.
Where [13] appears, read: CALBL 6 ppm, inhibitor 0.01%, 168 hr.
[14] abbreviates: CALBL 6 ppm, inhibitor 0.01%, 384 hr.
[15] abbreviates: CALBL 6 ppm, inhibitor 0.01%, 480 hr.
[16] abbreviates: CALBL 6 ppm, inhibitor 0.1%, 0 hr.
The mark [17] stands for this setting: CALBL 6 ppm, inhibitor 0.1%, 120 hr.
[18] abbreviates: CALBL 6 ppm, inhibitor 0.1%, 168 hr.
The mark [19] stands for this setting: CALBL 6 ppm, inhibitor 0.1%, 384 hr.
Setting [20] is: CALBL 6 ppm, inhibitor 0.1%, 480 hr.
The mark [21] stands for this setting: AC-261 latex, N51032 50 ppm, inhibitor 1% added simultaneously (Control: none), 0 hr.
The mark [22] stands for this setting: AC-261 latex, N51032 50 ppm, inhibitor 1% added simultaneously (Control: none), 24 hr.
Setting [23] is: AC-261 latex, N51032 50 ppm, inhibitor 1% added simultaneously (Control: none), 72 hr.
Where [24] appears, read: AC-261 latex, N51032 50 ppm, inhibitor 1% added simultaneously (Control: none), 168 hr.
Setting [25] is: N51032 5 ppm, inhibitor 0.001%, 0 hr.
Where [26] appears, read: N51032 5 ppm, inhibitor 0.001%, 120 hr.
Where [27] appears, read: N51032 5 ppm, inhibitor 0.001%, 168 hr.
[28] abbreviates: N51032 5 ppm, inhibitor 0.001%, 384 hr.
[29] abbreviates: N51032 5 ppm, inhibitor 0.001%, 480 hr.
Where [30] appears, read: N51032 5 ppm, inhibitor 0.01%, 0 hr.
Where [31] appears, read: N51032 5 ppm, inhibitor 0.01%, 120 hr.
[32] abbreviates: N51032 5 ppm, inhibitor 0.01%, 168 hr.
Where [33] appears, read: N51032 5 ppm, inhibitor 0.01%, 384 hr.
The mark [34] stands for this setting: N51032 5 ppm, inhibitor 0.01%, 480 hr.
[35] abbreviates: N51032 5 ppm, inhibitor 0.1%, 0 hr.
Where [36] appears, read: N51032 5 ppm, inhibitor 0.1%, 120 hr.
[37] abbreviates: N51032 5 ppm, inhibitor 0.1%, 168 hr.
Where [38] appears, read: N51032 5 ppm, inhibitor 0.1%, 384 hr.
Where [39] appears, read: N51032 5 ppm, inhibitor 0.1%, 480 hr.

Turning to `CC(C)CB(O)O` [2MPB, (2-methylpropyl) boronic acid], the “EA content” value amounted to 105 ppm on CALBL (setting [2]); 95 ppm on CALBL (setting [3]); 102 ppm at CALBL (setting [4]); 104 ppm at CALBL (setting [5]); 44 at CALBL (setting [6]); 32 at CALBL (setting [7]). For the same compound, the EA content at CALBL (setting [8]) amounted to 23; at CALBL (setting [9]), 10; at CALBL (setting [10]), 8; on CALBL (setting [11]), 43; on CALBL (setting [12]), 28; at CALBL (setting [13]) it was 24. In addition, the EA content on CALBL (setting [14]) was found to be 13; on CALBL (setting [15]), 11; at CALBL (setting [16]) it was 43; at CALBL (setting [17]), 34; on CALBL (setting [18]), 25; at CALBL (setting [19]), 15. Also, the EA content on CALBL (setting [20]) came out at 13; in the assay on N51032 (setting [21]), 117 ppm; in the assay with N51032 (setting [22]) it was 92 ppm; in the assay with N51032 (setting [23]) it was 99 ppm; in the assay with N51032 (setting [24]), 79 ppm; with N51032 (setting [25]), 42 ppm. The EA content in the assay with N51032 (setting [26]) was 24 ppm; in the assay with N51032 (setting [27]) it was 22 ppm; in the assay on N51032 (setting [28]), 8 ppm; with N51032 (setting [29]), 6 ppm; with N51032 (setting [30]) it was 37 ppm; in the assay with N51032 (setting [31]) it was 25 ppm. Further, the EA content amounted to 19 ppm in the assay on N51032 (setting [32]); 6 ppm in the assay with N51032 (setting [33]); 5 ppm in the assay on N51032 (setting [34]); 43 ppm in the assay on N51032 (setting [35]); 34 ppm in the assay on N51032 (setting [36]); 27 ppm in the assay with N51032 (setting [37]). Also, the EA content was 22 ppm in the assay with N51032 (setting [38]) and 20 ppm in the assay on N51032 (setting [39]). The “Inhibition of CALBL (in words)” value at CALBL (CALBL 60 ppm) is on record as “effective in inhibiting the carboxylesterase enzyme”.

As to `Nc1ccc(CO)cc1` [4ABA, 4-aminobenzyl alcohol], in assay [1], the “Acetaldehyde Headspace Concentration” value was 151 ppm, the “Acetone Headspace Concentration” value worked out at 245 ppm, the “Ethanol Headspace Concentration” value was 20 ppm and the “butanal Headspace Concentration” value is 1 ppm. In assay [1], the “l-butanol Headspace Concentration” value is 48 ppm and the “t-butanol Headspace Concentration” value turned out to be 257 ppm.

With `NNc1ccc(C(=O)O)cc1` [4HB, 4-hydrazino benzoic acid], in assay [1], the “Acetaldehyde Headspace Concentration” value turned out to be 14 ppm, the “Acetone Headspace Concentration” value is 247 ppm, the “Ethanol Headspace Concentration” value worked out at 20 ppm and the “butanal Headspace Concentration” value amounted to 0 ppm. In addition, in assay [1], the “l-butanol Headspace Concentration” value was found to be 48 ppm and the “t-butanol Headspace Concentration” value is recorded as 258 ppm.

With `OB(O)C1CCCCC1` [CBA, cyclohexylboronic acid], the “EA content” value was found to be 102 ppm at CALBL (setting [2]); 70 ppm on CALBL (setting [3]); 55 ppm on CALBL (setting [4]); 24 ppm on CALBL (setting [5]); 117 ppm in the assay on N51032 (setting [21]); 96 ppm in the assay on N51032 (setting [22]). The “EA content” value with N51032 (setting [23]) worked out at 109 ppm; in the assay on N51032 (setting [24]) it was 79 ppm. Further, the “Inhibition of CALBL (in words)” value on CALBL (CALBL 60 ppm) is listed as “some ability to inhibit the CALBL enzyme”.

For `CC(C)(C)CB(O)O` [NPB, Neopentylboronic acid], the “EA content” value is recorded as 107 ppm on CALBL (setting [2]); 21 ppm on CALBL (setting [3]); 0 ppm on CALBL (setting [4]); 0 ppm on CALBL (setting [5]); 116 ppm with N51032 (setting [21]); 49 ppm in the assay on N51032 (setting [22]). Besides, the results for the “EA content” value with N51032 (setting [23]) and in the assay on N51032 (setting [24]) were 30 ppm and 6 ppm, respectively. Moreover, the “Inhibition of CALBL (in words)” value on CALBL (CALBL 60 ppm) was “completely ineffective as an inhibitor of CALBL”.

With `OB(O)c1ccccc1` [PBA, phenylboronic acid], the “EA content” value at CALBL (setting [2]) is 108 ppm; at CALBL (setting [3]) it was 103 ppm; on CALBL (setting [4]), 116 ppm; at CALBL (setting [5]), 108 ppm; on CALBL (setting [6]), 48; at CALBL (setting [7]), 30. In addition, the EA content amounted to 25 at CALBL (setting [8]); 11 on CALBL (setting [9]); 9 at CALBL (setting [10]); 44 on CALBL (setting [11]); 32 on CALBL (setting [12]); 26 at CALBL (setting [13]). In addition, the EA content at CALBL (setting [14]) is given as 15; on CALBL (setting [15]), 15; at CALBL (setting [16]), 39; on CALBL (setting [17]), 35; on CALBL (setting [18]) it was 35; at CALBL (setting [19]) it was 29. Further, the EA content worked out at 29 at CALBL (setting [20]); 116 ppm in the assay on N51032 (setting [21]); 116 ppm in the assay on N51032 (setting [22]); 111 ppm in the assay with N51032 (setting [23]); 117 ppm with N51032 (setting [24]); 46 ppm in the assay with N51032 (setting [25]). Further, the EA content in the assay on N51032 (setting [26]) is 36 ppm; in the assay with N51032 (setting [27]), 34 ppm; in the assay with N51032 (setting [28]), 22 ppm; in the assay on N51032 (setting [29]) it was 19 ppm; in the assay on N51032 (setting [30]) it was 45 ppm; in the assay with N51032 (setting [31]), 41 ppm. Also, the EA content was found to be 39 ppm with N51032 (setting [32]); 34 ppm in the assay on N51032 (setting [33]); 34 ppm in the assay on N51032 (setting [34]); 46 ppm in the assay on N51032 (setting [35]); 34 ppm with N51032 (setting [36]); 41 ppm in the assay with N51032 (setting [37]). Further, the EA content in the assay with N51032 (setting [38]) came out at 38 ppm; with N51032 (setting [39]), 39 ppm. In addition, the “Inhibition of CALBL (in words)” value on CALBL (CALBL 60 ppm) is reported as “effective in inhibiting the carboxylesterase enzyme”. In addition, the “Inhibition of N51032 (in words)” value in the assay on N51032 (inhibitor 1%, N51032 50 ppm) was “effective in inhibiting the carboxylesterase enzyme”.

With `Nc1ccc(N)cc1` [PPD, p-phenylene diamine], in assay [1], the “Acetaldehyde Headspace Concentration” value amounted to 0 ppm, the “Acetone Headspace Concentration” value is on record as 279 ppm, the “Ethanol Headspace Concentration” value turned out to be 25 ppm and the “butanal Headspace Concentration” value is 0 ppm. Moreover, in assay [1], the “l-butanol Headspace Concentration” value was 58 ppm and the “t-butanol Headspace Concentration” value is reported as 304 ppm.

`CCCCCCCCCCS(=O)(=O)[O-].[Na+]` [S-1-DS, Sodium 1-decane-sulfonate]: the “EA content” value on CALBL (setting [2]) was determined as 114 ppm; at CALBL (setting [3]), 73 ppm; on CALBL (setting [4]), 36 ppm; on CALBL (setting [5]) it was 17 ppm; in the assay on N51032 (setting [21]), 115 ppm; with N51032 (setting [22]) it was 73 ppm. Moreover, the results for the “EA content” value in the assay on N51032 (setting [23]) and with N51032 (setting [24]) were 79 ppm and 77 ppm, respectively. The “Inhibition of CALBL (in words)” value at CALBL (CALBL 60 ppm) was “some ability to inhibit the CALBL enzyme”.

For the compound `NCCNCCNCCN` [TET, triethylene tetramine], in assay [1], the “Acetaldehyde Headspace Concentration” value is recorded as 42 ppm, the “Acetone Headspace Concentration” value was 262 ppm, the “Ethanol Headspace Concentration” value worked out at 23 ppm and the “butanal Headspace Concentration” value was 1 ppm. Besides, in assay [1], the “l-butanol Headspace Concentration” value was determined as 64 ppm and the “t-butanol Headspace Concentration” value was determined as 278 ppm.
